Measurements published in US20220073495A1 (priority 2020, published 2022).
Read-outs that look alike come from different tables or passages of the source.

Columns and labels:
[1] = system: A549 cells; details: human
[2] = in vitro; details: human
[3] = system: A/WSN/33; test: microbe, parasite or virus in culture; assay type: cell-based, influenza virus
[4] = system: viral M mRNA; test: High-throughput smRNA-FISH screen for viral M mRNA processing and nuclear export; assay type: cell-based, influenza A/WSN/33 virus; details: 2.5 μM, A/WSN/33
[5] = system: viral M mRNA; test: smRNA-FISH of M mRNA in WSN-infected cells; assay type: cell-based, influenza virus (WSN); details: 2.5 μM, WSN MOI 2 for 8 h
[6] = unidentified influenza virus, WSN, A549, 24 h, read-out: WSN IC50, A549 cells, A/WSN/33 MOI 0.01, 24 h post infection, NP-positive cells
[7] = unidentified influenza virus, WSN, A549, 24 h, read-out: WSN IC90, A549 cells, A/WSN/33 MOI 0.01, 24 h post infection, NP-positive cells

SMILES	24 h MTT CC10 [1] [µM]	CC50 [2] [µM]	IC50 [3, 6] [µM]	IC90 [3, 7] [µM]	IC50 ([3]; read-out: WSN IC50, A549 cells, A/WSN/33 MOI 0.01, 24 h post infection, NP-positive cells) [µM]	IC90 ([3]; read-out: WSN IC90, A549 cells, A/WSN/33 MOI 0.01, 24 h post infection, NP-positive cells) [µM]	viral M mRNA nuclear retention [4]	nuclear export of viral M mRNA [5]	total M mRNA fluorescence intensity [5]	CC50 [1] [µM]
O=C(CSc1nc2ccccc2[nH]1)NCc1ccccn1 [Compound 8]	>50	> 50	> 50	> 50						
Cc1ccc(NC(=O)CSc2nc3ccccc3[nH]2)nc1 [Compound 20]	7.855	> 50			> 50	> 50				
OC[C@H]1O[C@@H](n2cnc3cc(Cl)c(Cl)cc32)[C@H](O)[C@@H]1O [DRB, 5,6-dichloro-1-β-D-ribofuranosylbenzimidazole]							positive control for viral M mRNA nuclear retention			
Cn1c(SCC(=O)Nc2ccc(Br)cn2)nc2ccccc21 [Compound 1]	1.417	> 50	1.89	12.1						
COc1ccc(NC(=O)CSc2nc3ccccc3[nH]2)nc1 [Compound 21]	4.69	> 50	17.6	45.4						
COc1ccc2[nH]c(SCC(=O)Nc3ccc(Br)cn3)nc2c1 [Compound 28]	7.52	> 50	46.5	50						
O=C(CSc1nc2ccccc2[nH]1)Nc1ccc(F)cn1 [Compound 22]	31.688	> 50	43.3	> 50						
O=C(CS(=O)(=O)c1nc2ccccc2[nH]1)Nc1ccc(Br)cn1 [Compound 6]	23.361	> 50	22.6	> 50						
CCn1c(SCC(=O)Nc2ccc(Br)cn2)nc2ccccc21 [Compound 18]	47.499	> 50	38.4	> 50						
C=CCn1c(SCC(=O)Nc2ccc(Br)cn2)nc2ccccc21 [Compound 19]	18.984	> 50	> 50	> 50						
COc1ccc(-n2c(SC(C)C(=O)Nc3ccc(C)cc3Cl)nc3ccccc32)cc1 (stereo not shown) [JMN3-003, reference compound]								does not inhibit	decreased	
Cc1ccc(NC(=O)CCC2=Nc3ccccc3C2)nc1 [Compound 16]	7.382		30.9	> 50						> 50
Brc1ccc(CSc2nc3ccccc3[nH]2)cc1 [Compound 17]	19.818	> 50	> 50	> 50						
Cc1cccc2[nH]c(SCC(=O)Nc3ccc(Br)cn3)nc12 [Compound 3]	0.683	> 50	4.94	10						
CC(Sc1nc2ccccc2[nH]1)C(=O)Nc1ccc(Br)cn1 (stereo not shown) [Compound 12]	>50	> 50	> 50	> 50						
